These results are taken from patent US10961200B2, “Small molecule inhibitors of lactate dehydrogenase and methods of use thereof” (THE UNITED STATES OF AMERICA, AS REPRESENTED BY THE …, priority 2014, dated 2021).

Where two headings read alike, the source gives them in different places.

For one assay, the target named is Human LDHA (Homo sapiens (Human), UniProt P00338). Put plainly: human LDHA primary biochemical assay (resazurin/diaphorase coupled, fluorescence). An excerpt: Test compounds were placed in a Greiner Bio-One (Monroe, N.C.) 1536-well black solid bottom assay plate. 200 millimolar (mM) Tris HCl, pH 7.4, 100 micromolar […] EDTA and 0.01% TWEEN-20™, final concentration, was used as the assay buffer. The LDHA reagent was 2 nanomolar (nM) Human LDHA (Meridian Life Science, Inc., Memphis, Tenn.), final concentration, in assay buffer.
On the technique in general: Resazurin is reduced to fluorescent resorufin, in cell work by metabolically active cells.

In another assay the test system is MiaPaCa2 cells. In words: cell-based HT lactate assay, colorimetric/fluorometric detection (inhibition of lactate production). As to conditions: class symbols, 0 to 3 pluses. As to the method:
Cell-based HT Lactate assay is a miniaturized Biovision Lactate Colorimetric/Fluorometric Assay Kit (Cat #K607-100). The assay is roughly a 3.5 hour assay run in a 1536 plate format. Cell number optimization should be run for each cell line to achieve an optimal number in which lactate production equals roughly 90% of the standard curve range. Cell number per well optimization has been performed with the following cell lines: MiaPaCa2—500 cells/well, SNU398—500 cells/well, and P493—500 cells/well.
The lactate activity in Table 8 is represented by 0 to 3 pluses as follows: +++<1 μM; ++1-10 μM; +10-57 μM; and −>57 μM.

Setting [1] is: LDHA inhibitory activity, assay of Example 1, activity level classes.
The mark [2] stands for this setting: LDHA inhibitory activity, activity level based on IC50 (Table 7).

With `NS(=O)(=O)c1ccc(Cc2c(-c3ccc(F)c(F)c3)nn(-c3nc(C(=O)O)cs3)c2I)cc1` [Compound 43, 2-(3-(3,4-difluorophenyl)-5-iodo-4-(4-sulfamoylbenzyl)-1H-pyrazol-1-yl)thiazole-4-carboxylic acid], the IC50 on Human LDHA (setting [1]) is less than 0.1 µM; in the assay with MiaPaCa2 cells (Homo sapiens, MIA PaCa-2) it was 10 to 57 µM.

As to `Cc1c(Cc2ccc(S(N)(=O)=O)cc2)c(-c2ccccc2)nn1-c1nc(C(=O)O)cs1` [Compound 47, 2-(5-methyl-3-phenyl-4-(4-sulfamoylbenzyl)-1H-pyrazol-1-yl)thiazole-4-carboxylic acid], the half-inhibitory concentration (IC50) on Human LDHA (setting [1]) was less than 0.1 µM; in the assay with MiaPaCa2 cells (Homo sapiens, MIA PaCa-2), greater than 57 µM.

In the assay with MiaPaCa2 cells (Homo sapiens, MIA PaCa-2), `NS(=O)(=O)c1ccc(Cc2c(-c3ccc(F)c(F)c3)nn(-c3nc(C(=O)O)cs3)c2O)cc1` [Compound 53, 2-(3-(3,4-difluorophenyl)-5-hydroxy-4-(4-sulfamoylbenzyl)-1H-pyrazol-1-yl)thiazole-4-carboxylic acid] came in with an IC50 greater than 57 µM.

`NS(=O)(=O)c1ccc(Cc2c(-c3cccc(-c4ccccc4)c3)nn(-c3nc(C(=O)O)cs3)c2O)cc1` [Compound 54, 2-(3-([1,1′-biphenyl]-3-yl)-5-hydroxy-4-(4-sulfamoylbenzyl)-1H-pyrazol-1-yl)thiazole-4-carboxylic acid] yielded an IC50 with MiaPaCa2 cells (Homo sapiens, MIA PaCa-2) greater than 57 µM.

Turning to `NS(=O)(=O)c1ccc(Cc2c(-c3ccccc3)nn(-c3nc(C(=O)O)cs3)c2C#CC2CC2)cc1` [Compound 160, 2-(5-(cyclopropylethynyl)-3-phenyl-4-(4-sulfamoylbenzyl)-1H-pyrazol-1-yl)thiazole-4-carboxylic acid], the 50% inhibitory concentration (IC50) was less than 0.1 µM against Human LDHA (setting [1]) and 1 to 10 µM with MiaPaCa2 cells (Homo sapiens, MIA PaCa-2).

Consider `NS(=O)(=O)c1ccc(Cc2c(-c3cccc(-c4ccccc4)c3)nn(-c3nc(C(=O)O)cs3)c2C2CC2)c(F)c1` [Compound 183, 2-(3-([1,1′-biphenyl]-3-yl)-5-cyclopropyl-4-(2-fluoro-4-sulfamoylbenzyl)-1H-pyrazol-1-yl)thiazole-4-carboxylic acid], for which the half-inhibitory concentration (IC50) at Human LDHA (setting [1]) was less than 0.1 µM; in the assay with MiaPaCa2 cells (Homo sapiens, MIA PaCa-2), less than 1 µM.

For `NS(=O)(=O)c1ccc(Cc2c(-c3cccc(-c4ccccc4)c3)nn(-c3nc(C(=O)O)cs3)c2CCC2CC2)cc1` [Compound 203, 2-(3-([1,1′-biphenyl]-3-yl)-5-(2-cyclopropylethyl)-4-(4-sulfamoylbenzyl)-1H-pyrazol-1-yl)thiazole-4-carboxylic acid], the IC50 on Human LDHA (setting [1]) is less than 0.1 µM; with MiaPaCa2 cells (Homo sapiens, MIA PaCa-2), less than 1 µM.

Consider `NS(=O)(=O)c1ccc(Cc2c(C3CC3(F)F)nn(-c3nc(C(=O)O)cs3)c2-c2cccc(-c3ccccc3)c2)cc1` (stereo not drawn) [Compound 206, 2-(5-([1,1′-biphenyl]-3-yl)-3-(2,2-difluorocyclopropyl)-4-(4-sulfamoylbenzyl)-1H-pyrazol-1-yl)thiazole-4-carboxylic acid], for which the IC50 on Human LDHA (read-out: Inhibitory activity IC50) fell in the range of 1 to 57 µM; in the assay with MiaPaCa2 cells (Homo sapiens, MIA PaCa-2) it was 1 to 10 µM.

Regarding `NS(=O)(=O)c1ccc(Cc2c(-c3cccc(-c4ccccc4)c3)nn(-c3nc(C(=O)O)cs3)c2CC2CC2(F)F)cc1` (stereo not drawn) [Compound 207, 2-(3-([1,1′-biphenyl]-3-yl)-5-((2,2-difluorocyclopropyl)methyl)-4-(4-sulfamoylbenzyl)-1H-pyrazol-1-yl)thiazole-4-carboxylic acid], the IC50 on Human LDHA (setting [1]) was less than 0.1 µM; in the assay on MiaPaCa2 cells (Homo sapiens, MIA PaCa-2) it was 1 to 10 µM.

The molecule `N[S+](=O)([O-])c1ccc(Cc2c(-c3cccc(-c4ccccc4)c3)nn(-c3nc(C(=O)O)cs3)c2CC2CC2)cc1` [Compound 276] registered an IC50 with MiaPaCa2 cells of less than 1 µM.

In the assay on MiaPaCa2 cells (Homo sapiens, MIA PaCa-2), `NS(=O)(=O)c1ccc(Cc2c(-c3ccc(F)c(OC4CC4)c3)nn(-c3nc(C(=O)O)cs3)c2CC2CC2)cc1F` [Compound 471, 2-(3-(3-cydopropoxy-4-fluorophenyl)-5-(cyclopropylmethyl)-4-(3-fluoro-4-sulfamoylbenzyl)-1H-pyrazol-1-yl)thiazole-4-carboxylic acid] had an IC50 of 1 to 10 µM.

In the assay on MiaPaCa2 cells (Homo sapiens, MIA PaCa-2), `Cc1ccc(-c2cc(-c3nn(-c4nc(C(=O)O)cs4)c(CC4CC4)c3Cc3ccc(S(N)(=O)=O)cc3F)ccc2F)cc1` [Compound 472, 2-(5-(cyclopropylmethyl)-3-(6-fluoro-4′-methyl-[1,1′-biphenyl]-3-yl)-4-(2-fluoro-4-sulfamoylbenzyl)-1H-pyrazol-1-yl)thiazole-4-carboxylic acid] came in with a half-inhibitory concentration (IC50) of less than 1 µM.

The molecule `NS(=O)(=O)c1ccc(Cc2c(-c3cccc(OC4CCCC4)c3)nn(-c3nc(C(=O)O)cs3)c2CC2CC2)cc1` [Compound 477, 2-(3-(3-(cyclopentyloxy)phenyl)-5-(cyclopropylmethyl)-4-(4-sulfamoylbenzyl)-1H-pyrazol-1-yl)thiazole-4-carboxylic Acid] returned an IC50 in the assay on MiaPaCa2 cells (Homo sapiens, MIA PaCa-2) of less than 1 µM.

For `NS(=O)(=O)c1ccc(Cc2c(-c3cccc(Nc4ccccc4)c3)nn(-c3nc(C(=O)O)cs3)c2CC2CC2)cc1` [Compound 485, 2-(5-(cyclopropylmethyl)-3-(3-(phenylamino)phenyl)-4-(4-sulfamoylbenzyl)-1H-pyrazol-1-yl)thiazole-4-carboxylic acid], the IC50 in the assay on MiaPaCa2 cells (Homo sapiens, MIA PaCa-2) was in the range of 1 to 10 µM.

Molecule `CC(C)Oc1cccc(-c2nn(-c3nc(C(=O)O)cs3)c(CC3CC3)c2Cc2ccc(S(N)(=O)=O)cc2)c1` [Compound 504, 2-(5-(cyclopropylmethyl)-3-(3-isopropoxyphenyl)-4-(4-sulfamoylbenzyl)-1H-pyrazol-1-yl)thiazole-4-carboxylic Acid] came in with a concentration for half-maximal inhibition (IC50) in the assay with MiaPaCa2 cells (Homo sapiens, MIA PaCa-2) of 1 to 10 µM.

Take `NS(=O)(=O)c1ccc(Cc2c(-c3ccc(F)c(/C=C/C4CCCC4)c3)nn(-c3nc(C(=O)O)cs3)c2CC2CC2)cc1F` [Compound 535, (E)-2-(3-(3-(2-cyclopentylvinyl)-4-fluorophenyl)-5-(cyclopropylmethyl)-4-(3-fluoro-4-sulfamoylbenzyl)-1H-pyrazol-1-yl)thiazole-4-carboxylic acid]: the IC50 at Human LDHA (setting [2]) is less than 0.1 µM.

Regarding `CCOC(=O)c1csc(-n2nc(-c3ccc(F)c(C#CC4CCCC4)c3)c(Cc3cccc(S(N)(=O)=O)c3)c2CC2CC2)n1` [Compound 536, ethyl 2-(3-(3-(cyclopentylethynyl)-4-fluorophenyl)-5-(cyclopropylmethyl)-4-(3-sulfamoylbenzyl)-1H-pyrazol-1-yl)thiazole-4-carboxylate], the IC50 on Human LDHA (setting [2]) was greater than 57 µM.

In turn, `CC(C)CC#Cc1cc(-c2nn(-c3nc(C(=O)O)cs3)c(CC3CC3)c2Cc2ccc(S(N)(=O)=O)c(F)c2)ccc1F` [Compound 538, 2-(5-(cyclopropylmethyl)-3-(4-fluoro-3-(4-methylpent-1-yn-1-yl)phenyl)-4-(3-fluoro-4-sulfamoylbenzyl)-1H-pyrazol-1-yl)thiazole-4-carboxylic acid] had an IC50 against Human LDHA (setting [2]) of less than 0.1 µM.

Regarding `CCCC#Cc1cc(-c2nn(-c3nc(C(=O)O)cs3)c(CC3CC3)c2Cc2ccc(S(N)(=O)=O)c(F)c2)ccc1F` [Compound 539, 2-(5-(cyclopropylmethyl)-3-(4-fluoro-3-(pent-1-yn-1-yl)phenyl)-4-(3-fluoro-4-sulfamoylbenzyl)-1H-pyrazol-1-yl)thiazole-4-carboxylic acid], the 50% inhibitory concentration (IC50) against Human LDHA (setting [2]) was less than 0.1 µM.

`CCCCC#Cc1cc(-c2nn(-c3nc(C(=O)O)cs3)c(CC3CC3)c2Cc2ccc(S(N)(=O)=O)c(F)c2)ccc1F` [Compound 540, 2-(5-(cyclopropylmethyl)-3-(4-fluoro-3-(hex-1-yn-1-yl)phenyl)-4-(3-fluoro-4-sulfamoylbenzyl)-1H-pyrazol-1-yl)thiazole-4-carboxylic acid] registered an IC50 against Human LDHA (setting [2]) of less than 0.1 µM.

The IC50 is the concentration at which inhibition is half-maximal.
